Test results from patent US20180036289A1 (Gilead Sciences, Inc., priority 2016, published 2018).

Assays:
Assay in all cases: Cell proliferation assay (ATPlite), drug with vs without cobicistat
Assay type in all cases: cell-based
[1] = test system: LoVo; conditions: LoVo cell line; 120 hours incubation
Procedure, shortened: (§1)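 Duplicate wells per concentration; nine 3.16-fold steps from 3.16×10^−5 M downward to 3.16×10^−9 M. Compound added on day 1 after seeding, then 120 h incubation and ATPlite luminescence. Four-parameter logistic fitting of %-growth versus untreated gave IC50.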

[2] = test system: NCI-H82; conditions: NCI-H82 cell line; 120 hours incubation
Procedure, shortened: as §1

[3] = test system: C-33 A; conditions: C-33 A cell line; 120 hours incubation
Procedure, shortened: as §1

[4] = test system: A-498; conditions: A-498 cell line; 120 hours incubation
Procedure, shortened: as §1

[5] = test system: A-427; conditions: A-427 cell line; 120 hours incubation
Procedure, shortened: as §1

[6] = test system: U-2 OS; conditions: U-2 OS cell line; 120 hours incubation
Procedure, shortened: as §1

[7] = test system: SHP-77; conditions: SHP-77 cell line; 120 hours incubation
Procedure, shortened: as §1

[8] = test system: RT4; conditions: RT4 cell line; 120 hours incubation
Procedure, shortened: as §1

[9] = test system: A-549; conditions: A-549 cell line; 120 hours incubation
Procedure, shortened: as §1

[10] = test system: LNCaP FGC; conditions: LNCaP FGC cell line; 120 hours incubation
Procedure, shortened: as §1

[11] = test system: K-562; conditions: K-562 cell line; 120 hours incubation
Procedure, shortened: as §1

[12] = test system: MIA PaCa-2; conditions: MIA PaCa-2 cell line; 120 hours incubation
Procedure, shortened: as §1

[13] = test system: A-704; conditions: A-704 cell line; 120 hours incubation
Procedure, shortened: as §1

[14] = test system: U-87 MG; conditions: U-87 MG cell line; 120 hours incubation
Procedure, shortened: as §1

[15] = test system: AsPC-1; conditions: AsPC-1 cell line; 120 hours incubation
Procedure, shortened: as §1

[16] = test system: CCRF-CEM; conditions: CCRF-CEM cell line; 120 hours incubation
Procedure, shortened: as §1

[17] = test system: KU812; conditions: KU812 cell line; 120 hours incubation
Procedure, shortened: as §1

[18] = test system: PA-1; conditions: PA-1 cell line; 120 hours incubation
Procedure, shortened: as §1

[19] = test system: Hs 578T; conditions: Hs 578T cell line; 120 hours incubation
Procedure, shortened: as §1

[20] = test system: RPMI-7951; conditions: RPMI-7951 cell line; 120 hours incubation
Procedure, shortened: as §1

[21] = test system: OVCAR-3; conditions: OVCAR-3 cell line; 120 hours incubation
Procedure, shortened: as §1

[22] = test system: A-204; conditions: A-204 cell line; 120 hours incubation
Procedure, shortened: as §1

[23] = test system: MeWo; conditions: MeWo cell line; 120 hours incubation
Procedure, shortened: as §1

[24] = test system: T98G; conditions: T98G cell line; 120 hours incubation
Procedure, shortened: as §1

[25] = test system: AU-565; conditions: AU-565 cell line; 120 hours incubation
Procedure, shortened: as §1

[26] = test system: CAL 27; conditions: CAL 27 cell line; 120 hours incubation
Procedure, shortened: as §1

[27] = test system: SK-N-FI; conditions: SK-N-FI cell line; 120 hours incubation
Procedure, shortened: as §1

[28] = test system: DLD-1; conditions: DLD-1 cell line; 120 hours incubation
Procedure, shortened: as §1

[29] = test system: AN3 CA; conditions: AN3 CA cell line; 120 hours incubation
Procedure, shortened: as §1

[30] = test system: BT-549; conditions: BT-549 cell line; 120 hours incubation
Procedure, shortened: as §1

Compound	Fold change in IC50 (IC50 [Drug + Cobicistat]/IC50 [Drug]) [1] [fold]	Fold change in IC50 (IC50 [Drug + Cobicistat]/IC50 [Drug]) [2] [fold]	Fold change in IC50 (IC50 [Drug + Cobicistat]/IC50 [Drug]) [3] [fold]	Fold change in IC50 (IC50 [Drug + Cobicistat]/IC50 [Drug]) [4] [fold]	Fold change in IC50 (IC50 [Drug + Cobicistat]/IC50 [Drug]) [5] [fold]	Fold change in IC50 (IC50 [Drug + Cobicistat]/IC50 [Drug]) [6] [fold]	Fold change in IC50 (IC50 [Drug + Cobicistat]/IC50 [Drug]) [7] [fold]	Fold change in IC50 (IC50 [Drug + Cobicistat]/IC50 [Drug]) [8] [fold]	Fold change in IC50 (IC50 [Drug + Cobicistat]/IC50 [Drug]) [9] [fold]	Fold change in IC50 (IC50 [Drug + Cobicistat]/IC50 [Drug]) [10] [fold]	Fold change in IC50 (IC50 [Drug + Cobicistat]/IC50 [Drug]) [11] [fold]	Fold change in IC50 (IC50 [Drug + Cobicistat]/IC50 [Drug]) [12] [fold]	Fold change in IC50 (IC50 [Drug + Cobicistat]/IC50 [Drug]) [13] [fold]	Fold change in IC50 (IC50 [Drug + Cobicistat]/IC50 [Drug]) [14] [fold]	Fold change in IC50 (IC50 [Drug + Cobicistat]/IC50 [Drug]) [15] [fold]	Fold change in IC50 (IC50 [Drug + Cobicistat]/IC50 [Drug]) [16] [fold]	Fold change in IC50 (IC50 [Drug + Cobicistat]/IC50 [Drug]) [17] [fold]	Fold change in IC50 (IC50 [Drug + Cobicistat]/IC50 [Drug]) [18] [fold]	Fold change in IC50 (IC50 [Drug + Cobicistat]/IC50 [Drug]) [19] [fold]	Fold change in IC50 (IC50 [Drug + Cobicistat]/IC50 [Drug]) [20] [fold]	further results
CC[C@]1(O)C[C@H]2CN(CCc3c([nH]c4ccccc34)[C@@](C(=O)OC)(c3cc4c(cc3OC)N(C=O)[C@H]3[C@@](O)(C(=O)OC)[C@H](OC(C)=O)[C@]5(CC)C=CCN6CC[C@]43[C@@H]65)C2)C1 [vincristine]	1.6	3.1	2.7	3.2	1.9	3.5	2.6	4.0	1.9	3.6	3.5	3.6	2.0	3.1	3.1	3.6	3.7	4.2	2.8	4.6	Fold change in IC50 (IC50 [Drug + Cobicistat]/IC50 [Drug]) [21]: 4.0 fold; Fold change in IC50 (IC50 [Drug + Cobicistat]/IC50 [Drug]) [22]: 4.4 fold; Fold change in IC50 (IC50 [Drug + Cobicistat]/IC50 [Drug]) [23]: 2.9 fold; Fold change in IC50 (IC50 [Drug + Cobicistat]/IC50 [Drug]) [24]: 4.1 fold; Fold change in IC50 (IC50 [Drug + Cobicistat]/IC50 [Drug]) [25]: 3.0 fold; Fold change in IC50 (IC50 [Drug + Cobicistat]/IC50 [Drug]) [26]: 2.6 fold; Fold change in IC50 (IC50 [Drug + Cobicistat]/IC50 [Drug]) [27]: 2.7 fold; Fold change in IC50 (IC50 [Drug + Cobicistat]/IC50 [Drug]) [28]: 2.0 fold; Fold change in IC50 (IC50 [Drug + Cobicistat]/IC50 [Drug]) [29]: 4.7 fold; Fold change in IC50 (IC50 [Drug + Cobicistat]/IC50 [Drug]) [30]: 2.9 fold
CC[C@]1(O)C[C@@H]2CN(CCc3c([nH]c4ccccc34)[C@@](C(=O)OC)(c3cc4c(cc3OC)N(C)[C@H]3[C@@](O)(C(=O)OC)[C@H](OC(C)=O)[C@]5(CC)C=CCN6CC[C@]43[C@@H]65)C2)C1 [vinblastine]	1.9	3.5	1.9	3.8	2.7	4.4	2.0	4.9	2.3	4.0	2.6	3.7	3.8	2.6	5.6	3.3	4.4	6.3	3.7	3.2	Fold change in IC50 (IC50 [Drug + Cobicistat]/IC50 [Drug]) [21]: 2.6 fold; Fold change in IC50 (IC50 [Drug + Cobicistat]/IC50 [Drug]) [22]: 4.0 fold; Fold change in IC50 (IC50 [Drug + Cobicistat]/IC50 [Drug]) [23]: 3.2 fold; Fold change in IC50 (IC50 [Drug + Cobicistat]/IC50 [Drug]) [24]: 4.9 fold; Fold change in IC50 (IC50 [Drug + Cobicistat]/IC50 [Drug]) [25]: 3.0 fold; Fold change in IC50 (IC50 [Drug + Cobicistat]/IC50 [Drug]) [26]: 2.8 fold; Fold change in IC50 (IC50 [Drug + Cobicistat]/IC50 [Drug]) [27]: 4.5 fold; Fold change in IC50 (IC50 [Drug + Cobicistat]/IC50 [Drug]) [28]: 2.2 fold; Fold change in IC50 (IC50 [Drug + Cobicistat]/IC50 [Drug]) [29]: 3.9 fold; Fold change in IC50 (IC50 [Drug + Cobicistat]/IC50 [Drug]) [30]: 3.3 fold
COc1cccc2c1C(=O)c1c(O)c3c(c(O)c1C2=O)C[C@@](O)(C(=O)CO)C[C@@H]3O[C@H]1C[C@H](N)[C@H](O)[C@H](C)O1 [doxorubicin]	2.0	2.6	1.9	1.2	1.5	3.0	2.5	2.7	0.8	1.8	2.5	2.2	1.3	0.7	1.3	2.7	2.9	3.0	1.7	2.3	Fold change in IC50 (IC50 [Drug + Cobicistat]/IC50 [Drug]) [21]: 2.5 fold; Fold change in IC50 (IC50 [Drug + Cobicistat]/IC50 [Drug]) [22]: 2.5 fold; Fold change in IC50 (IC50 [Drug + Cobicistat]/IC50 [Drug]) [23]: 2.1 fold; Fold change in IC50 (IC50 [Drug + Cobicistat]/IC50 [Drug]) [24]: 1.4 fold; Fold change in IC50 (IC50 [Drug + Cobicistat]/IC50 [Drug]) [25]: 2.1 fold; Fold change in IC50 (IC50 [Drug + Cobicistat]/IC50 [Drug]) [26]: 1.9 fold; Fold change in IC50 (IC50 [Drug + Cobicistat]/IC50 [Drug]) [27]: 2.0 fold; Fold change in IC50 (IC50 [Drug + Cobicistat]/IC50 [Drug]) [28]: 1.4 fold; Fold change in IC50 (IC50 [Drug + Cobicistat]/IC50 [Drug]) [29]: 2.0 fold; Fold change in IC50 (IC50 [Drug + Cobicistat]/IC50 [Drug]) [30]: 1.5 fold
